Experimental findings from US10053462B2, “P2X7 modulators” (Jansssen Pharmaceutica NV, priority 2013, dated 2018) are described below.

Each structure is given as a SMILES string. Read-outs that look alike come from different tables or passages of the source.

The target in the test is P2X7 (Homo sapiens (Human), UniProt Q99572). Kind of test: P2X7 antagonism in human peripheral blood mononuclear cells (PBMCs), IL-1β release. The conditions noted are these: LPS 30 ng/ml + Bz-ATP 0.5 mM; for remaining activity at 10 µM: read-out: PBMC 10 μM (% control); for PBMC 10 μM (% control): Table 1, 10 μM compound. Type of test: cell-based. As for the experimental part: P2X7 Antagonism in Human Peripheral Blood Mononuclear Cells (PBMCs) and Human Whole Blood.
Chain of P2X7 (Q99572 whole entry): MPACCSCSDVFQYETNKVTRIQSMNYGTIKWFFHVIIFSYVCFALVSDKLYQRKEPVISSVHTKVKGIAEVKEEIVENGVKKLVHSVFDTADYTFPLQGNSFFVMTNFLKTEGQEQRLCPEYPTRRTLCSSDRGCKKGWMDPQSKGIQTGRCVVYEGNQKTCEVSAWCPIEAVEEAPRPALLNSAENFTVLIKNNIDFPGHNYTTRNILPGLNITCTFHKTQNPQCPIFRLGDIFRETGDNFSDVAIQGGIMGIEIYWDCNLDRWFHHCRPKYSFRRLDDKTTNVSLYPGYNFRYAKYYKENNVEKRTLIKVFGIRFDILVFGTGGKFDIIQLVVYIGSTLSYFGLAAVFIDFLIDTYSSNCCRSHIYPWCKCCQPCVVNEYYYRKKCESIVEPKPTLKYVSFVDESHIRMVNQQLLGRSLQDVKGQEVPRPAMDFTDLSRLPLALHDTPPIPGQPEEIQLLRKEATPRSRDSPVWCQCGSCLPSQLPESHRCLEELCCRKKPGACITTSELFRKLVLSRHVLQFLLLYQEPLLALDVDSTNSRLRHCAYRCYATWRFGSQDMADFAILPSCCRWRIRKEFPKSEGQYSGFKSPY
Human blood was collected using a blood donor program. PBMCs were isolated from blood using a Ficoll density gradient technique. Briefly, blood was laid on Ficoll solution and centrifuged at RT for 20 minutes at 2000 rpm. The buffy layer (between red blood cells and plasma) was carefully collected by aspiration, washed with PBS and centrifuged again at 1500 rpm for 15 minutes. The resulting cell pellet was washed and plated on 96 well-plates for experiments. For the Human Whole Blood experiments, 150 μl of human blood was platted on 96 well-plates. Lipopolysaccharide (LPS) (30 ng/ml) was added to each well and incubated for 1 hour. Test compounds were then added and incubated for 30 minutes. The P2X7 agonist, 2′(3′)-O-(4-benzoylbenzoyl) adenosine 5′-triphosphate (Bz-ATP) was then added at a final concentration of 0.5 mM (PBMC) or 1 mM (blood). Cells were incubated for an additional 1.5 hours. At that point, supernatant was collected and stored for IL-1β assay using manufacturer's protocol for enzyme-linked immunosorbent assay (ELISA). Data was expressed as percent control, where control is defined as the difference in IL-1β release in LPS+Bz-ATP samples and LPS only samples. Data was plotted as response (% control) versus concentration to generate IC50 values. […] Data are analyzed and graphed on Graphpad Prism 5. For analysis, each concentration point is averaged from triplicate values and the averaged values are plotted on Graphpad Prism.

The mark [1] stands for this setting: P2X7, Table 2 (additional runs), 10 μM compound.

As for `Cc1cccc(-c2nnc3n2C[C@@H]2CCC[C@H]3N2C(=O)c2cccc(C(F)(F)F)c2Cl)n1` (stereo in doubt) [Example 23, (6S*,10R*)-11-{[2-Chloro-3-(trifluoromethyl)phenyl]carbonyl}-3-(6-methylpyridin-2-yl)-5,6,7,8,9,10-hexahydro-6,10-epimino[1,2,4]triazolo[4,3-a]azocine], the remaining activity at 10 µM is, setting by setting: (P2X7, Table 1, 10 μM compound) 8%; under setting [1], 8%.

`Cc1ncsc1-c1nnc2n1C[C@@H]1CC[C@H]2N1C(=O)c1cccc(C(F)(F)F)c1Cl` [Example 59, (6S,9R)-10-{[2-Chloro-3-(trifluoromethyl)phenyl]carbonyl}-3-(4-methyl-1,3-thiazol-5-yl)-6,7,8,9-tetrahydro-5H-6,9-epimino[1,2,4]triazolo[4,3-a]azepine]: the “PBMC 10 μM (% control)” value is 0.6 % control. The remaining activity at 10 µM under setting [1] was 0.6%.

For the compound `O=C(c1ccc(F)c(C(F)(F)F)c1Cl)N1[C@@H]2CCC[C@H]1c1nnc(-c3ccccn3)n1C2` (stereo in doubt) [Example 200, (6R,10S)-11-{[2-Chloro-4-fluoro-3-(trifluoromethyl)phenyl]carbonyl}-3-pyridin-2-yl-5,6,7,8,9,10-hexahydro-6,10-epimino[1,2,4]triazolo[4,3-a]azocine], the remaining activity at 10 µM under setting [1] was 7.7%.

In the case of `COc1ccnc(-c2nnc3n2C[C@@H]2CCC[C@H]3N2C(=O)c2cccc(C(F)(F)F)c2Cl)c1` (stereo in doubt) [Example 26, (6S*,10R*)-11-{[2-Chloro-3-(trifluoromethyl)phenyl]carbonyl}-3-(4-methoxypyridin-2-yl)-5,6,7,8,9,10-hexahydro-6,10-epimino[1,2,4]triazolo[4,3-a]azocine], the remaining activity at 10 µM (P2X7, Table 1, 10 μM compound) came to 9.2% and the remaining activity at 10 µM under setting [1] came to 9.2%.

With `O=C(c1ccnc(C(F)(F)F)c1Cl)N1[C@@H]2CCC[C@H]1c1nnc(-c3cccs3)n1C2` (stereo in doubt) [Example 36, (6R*,10S*)-11-{[3-Chloro-2-(trifluoromethyl)pyridin-4-yl]carbonyl}-3-thiophen-2-yl-5,6,7,8,9,10-hexahydro-6,10-epimino[1,2,4]triazolo[4,3-a]azocine], the remaining activity at 10 µM runs as follows: (P2X7, Table 1, 10 μM compound) -1.2%; under setting [1], -1.2%.

As to `O=C(c1cccc(C(F)(F)F)c1Cl)N1[C@H]2CC[C@@H]1c1nnc(-c3ccccn3)n1C2` [Example 41, (6S,9R)-10-{[2-Chloro-3-(trifluoromethyl)phenyl]carbonyl}-3-pyridin-2-yl-6,7,8,9-tetrahydro-5H-6,9-epimino[1,2,4]triazolo[4,3-a]azepine], the “PBMC 10 μM (% control)” value is on record as −20.0 % control. The remaining activity at 10 µM under setting [1] is -20%.

In the case of `O=C(c1ccnc(C(F)(F)F)c1Cl)N1[C@H]2CCC[C@@H]1c1nnc(-c3cccs3)n1C2` (stereo in doubt) [Example 35, (6S*,10R*)-11-{[3-Chloro-2-(trifluoromethyl)pyridin-4-yl]carbonyl}-3-thiophen-2-yl-5,6,7,8,9,10-hexahydro-6,10-epimino[1,2,4]triazolo[4,3-a]azocine], the “PBMC 10 μM (% control)” value is 82.2 % control. In addition, the remaining activity at 10 µM under setting [1] came to 82.2%.

On to `O=C(c1cccc(C(F)(F)F)c1Cl)N1[C@@H]2CCC[C@H]1c1nnc(-c3cccnn3)n1C2` (stereo in doubt) [Example 195, (6R,10S)-11-{[2-Chloro-3-(trifluoromethyl)phenyl]carbonyl}-3-pyridazin-3-yl-5,6,7,8,9,10-hexahydro-6,10-epimino[1,2,4]triazolo[4,3-a]azocine], for which, under setting [1], the remaining activity at 10 µM was 11.2%.

As for `Cc1c(C(=O)N2[C@H]3CC[C@@H]2c2nnc(-c4cscn4)n2C3)cccc1C(F)(F)F` [Example 53, (6S,9R)-10-{[2-Methyl-3-(trifluoromethyl)phenyl]carbonyl}-3-(1,3-thiazol-4-yl)-6,7,8,9-tetrahydro-5H-6,9-epimino[1,2,4]triazolo[4,3-a]azepine], the “PBMC 10 μM (% control)” value was 4.0 % control. The remaining activity at 10 µM under setting [1] was found to be 4%.
